These results are taken from PubChem BioAssay AID1963959 (Molecular Pharmacology Branch, DTP, NCI, 2024).

The subject of this experiment is T-47D spheroids with HUVEC/MSC, viability. As to the kind of experiment: Anticancer human tumor T-47D cell line growth inhibition [PI3K].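 As to all read-outs here: spheroids exposed to agents for seven days before reading.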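 As to viability, T/C: percent of DMSO vehicle control luminescence so 100% = untreated growth.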 The conditions noted are these: for viability, T/C: stronger effect = lower value. The method, boiled down: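 Stroma-containing spheroids: tumor line, pooled-donor HUVEC, hMSC. Treatments: targeted agents with PI3K inhibitors. Dosing: clinically relevant, half-log spacing, 10 microM ceiling without known Cmax. Read-out: cell viability.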

The mark [1] stands for this setting: curve of first compound, second compound 0.0316 µM.
[2] abbreviates: curve of first compound, second compound 0.1 µM.
The mark [3] stands for this setting: curve of first compound, second compound 0.316 µM.
Where [4] appears, read: curve of first compound, second compound 1 µM.
The mark [5] stands for this setting: second compound 0.0316 µM, first compound 0.0316 µM.
Setting [6] is: second compound 0.0316 µM, first compound 0.1 µM.
The mark [7] stands for this setting: second compound 0.0316 µM, first compound 0.316 µM.
The mark [8] stands for this setting: second compound 0.0316 µM, first compound 1 µM.
Where [9] appears, read: second compound 0.0316 µM, first compound 3.16 µM.
The mark [10] stands for this setting: second compound 0.0316 µM, first compound 10 µM.
Setting [11] is: second compound 0.1 µM, first compound 0.0316 µM.
Setting [12] is: second compound 0.1 µM, first compound 0.1 µM.
[13] abbreviates: second compound 0.1 µM, first compound 0.316 µM.
Where [14] appears, read: second compound 0.1 µM, first compound 1 µM.
The mark [15] stands for this setting: second compound 0.1 µM, first compound 3.16 µM.
Where [16] appears, read: second compound 0.1 µM, first compound 10 µM.
Setting [17] is: second compound 0.316 µM, first compound 0.0316 µM.
The mark [18] stands for this setting: second compound 0.316 µM, first compound 0.1 µM.
The mark [19] stands for this setting: second compound 0.316 µM, first compound 0.316 µM.
Setting [20] is: second compound 0.316 µM, first compound 1 µM.
The mark [21] stands for this setting: second compound 0.316 µM, first compound 3.16 µM.
[22] abbreviates: second compound 0.316 µM, first compound 10 µM.
Where [23] appears, read: second compound 1 µM, first compound 0.0316 µM.
The mark [24] stands for this setting: second compound 1 µM, first compound 0.1 µM.
Where [25] appears, read: second compound 1 µM, first compound 0.316 µM.
Where [26] appears, read: second compound 1 µM, first compound 1 µM.
[27] abbreviates: second compound 1 µM, first compound 3.16 µM.
[28] abbreviates: second compound 1 µM, first compound 10 µM.
The mark [29] stands for this setting: curve of first compound, second compound 0.00316 µM.
The mark [30] stands for this setting: curve of first compound, second compound 0.01 µM.
The mark [31] stands for this setting: second compound 0.00316 µM, first compound 0.0316 µM.
[32] abbreviates: second compound 0.00316 µM, first compound 0.1 µM.
[33] abbreviates: second compound 0.00316 µM, first compound 0.316 µM.
Setting [34] is: second compound 0.00316 µM, first compound 1 µM.
Where [35] appears, read: second compound 0.00316 µM, first compound 3.16 µM.
The mark [36] stands for this setting: second compound 0.00316 µM, first compound 10 µM.
The mark [37] stands for this setting: second compound 0.01 µM, first compound 0.0316 µM.
The mark [38] stands for this setting: second compound 0.01 µM, first compound 0.1 µM.
The mark [39] stands for this setting: second compound 0.01 µM, first compound 0.316 µM.
Setting [40] is: second compound 0.01 µM, first compound 1 µM.
[41] abbreviates: second compound 0.01 µM, first compound 3.16 µM.
Where [42] appears, read: second compound 0.01 µM, first compound 10 µM.

Where “and” joins values, the source holds several entries; their conditions need not be identical. Identical values can stand only once.

For `Cn1nccc1Nc1nccc(-c2ccn(C(CO)c3ccc(Cl)c(F)c3)c(=O)c2)n1` (centres undefined) + Cc1nc(NC(=O)N2CCCC2C(N)=O)sc1-c1ccnc(C(C)(C)C(F)(F)F)c1, the IC50 (as a rule, the concentration at which inhibition is half-maximal) reads like this: under setting [1], over 10 µM; under setting [2], over 10 µM; under setting [3], over 10 µM; under setting [4], over 10 µM; (curve of first compound, second compound 3.16 µM) over 10 µM; (curve of first compound, second compound 10 µM) under 0.0316 µM. Besides, the viability, T/C (as a rule, the ratio of treated to control) by setting is: under setting [5], 99.1%; under setting [6], 81.6%; under setting [7], 92.6%; under setting [8], 102%; under setting [9], 103%; under setting [10], 96.3%. The viability, T/C is 111% under setting [11]; 95.2% under setting [12]; 98.8% under setting [13]; 89.4% under setting [14]; 117% under setting [15]; 85.7% under setting [16]. The viability, T/C under setting [17] was 86.8%; the viability, T/C under setting [18] is 93.3%; the viability, T/C under setting [19] is 97.6%; the viability, T/C under setting [20] is 101%; the viability, T/C under setting [21] was 104%; the viability, T/C under setting [22] was 92.4%. Besides, the viability, T/C under setting [23] was 85.4%; the viability, T/C under setting [24] is 92.7%; the viability, T/C under setting [25] was 86.6%; the viability, T/C under setting [26] is 88%; the viability, T/C under setting [27] is 110%; the viability, T/C under setting [28] was 82%. Further, the viability, T/C runs as follows: (second compound 3.16 µM, first compound 0.0316 µM) 65.9%; (second compound 3.16 µM, first compound 0.1 µM) 70.8%; (second compound 3.16 µM, first compound 0.316 µM) 73.5%; (second compound 3.16 µM, first compound 1 µM) 83.3%; (second compound 3.16 µM, first compound 3.16 µM) 76.9%; (second compound 3.16 µM, first compound 10 µM) 70.8%. For the same molecule, the viability, T/C is 39.5% (second compound 10 µM, first compound 0.0316 µM); 39.9% (second compound 10 µM, first compound 0.1 µM); 41.7% (second compound 10 µM, first compound 0.316 µM); 42.9% (second compound 10 µM, first compound 1 µM); 46.4% (second compound 10 µM, first compound 3.16 µM); 48.7% (second compound 10 µM, first compound 10 µM).
As to `C[C@@H](NC(=O)c1ncnc(N)c1Cl)c1ncc(C(=O)Nc2cc(C(F)(F)F)c(Cl)cn2)s1`, the viability, T/C is 93.7% [middle of 4 runs] (compound 0.0316 µM); 89.2% and 106% (2×) and 91.6% (compound 0.316 µM); 99.1% [middle of 4 runs] (compound 3.16 µM); 91% [middle of 4 runs] (compound 10 µM). Besides, the IC50 (curve of compound) was over 10 µM.
`Cn1ncnc1[C@H]1c2n[nH]c(=O)c3cc(F)cc(c23)N[C@@H]1c1ccc(F)cc1`: the viability, T/C was 103% [middle of 4 runs] (compound 0.000316 µM), 98.3% [middle of 4 runs] (compound 0.001 µM), 109% [middle of 4 runs] (compound 0.01 µM) and 101% [middle of 4 runs] (compound 0.0316 µM). In addition, the half-inhibitory concentration (IC50) (curve of compound) is over 0.1 µM.
For `CCCS(=O)(=O)Nc1ccc(F)c(C(=O)c2c[nH]c3ncc(-c4ccc(Cl)cc4)cc23)c1F` + COc1c(OCCCN2CCOCC2)ccc2c3n(c(=NC(=O)c4cnc(N)nc4)nc12)CCN3, the IC50 under setting [29] was over 10 µM; the IC50 under setting [30] was over 10 µM; the IC50 under setting [1] was over 10 µM; the IC50 under setting [2] is under 0.0316 µM; the IC50 under setting [3] was under 0.0316 µM; the half-inhibitory concentration (IC50) under setting [4] was under 0.0316 µM. The viability, T/C runs as follows: under setting [31], 104%; under setting [32], 86.9%; under setting [33], 110%; under setting [34], 94.1%; under setting [35], 69.5%; under setting [36], 56.8%. Besides, the viability, T/C was 98.3% under setting [37]; 86.2% under setting [38]; 83.4% under setting [39]; 92.4% under setting [40]; 87.4% under setting [41]; 51.3% under setting [42]. In addition, the viability, T/C is 66.8% under setting [5]; 77% under setting [6]; 73.9% under setting [7]; 62.5% under setting [8]; 57.5% under setting [9]; 52.2% under setting [10]. In addition, the viability, T/C under setting [11] was 38%; the viability, T/C under setting [12] was 42.6%; the viability, T/C under setting [13] was 36.4%; the viability, T/C under setting [14] is 39.8%; the viability, T/C under setting [15] was 31.6%; the viability, T/C under setting [16] is 33.7%. Besides, the viability, T/C reads like this: under setting [17], 14.9%; under setting [18], 22.1%; under setting [19], 18.3%; under setting [20], 16.1%; under setting [21], 18.8%; under setting [22], 20.5%. Moreover, the viability, T/C was 5.53% under setting [23]; 9.03% under setting [24]; 6.15% under setting [25]; 2.77% under setting [26]; 4.64% under setting [27]; 6.82% under setting [28].
For the molecule `CC(Nc1ncnc2nc[nH]c12)c1cc2cccc(Cl)c2c(=O)n1-c1ccccc1` (centres undefined), the viability, T/C by setting is: (compound 0.0316 µM) 96.2% [middle of 8 runs]; (compound 0.316 µM) 96.2% [middle of 8 runs]. For the same molecule, the IC50 (compound alone, run of 04/25/2023) was over 10 µM.
Regarding `CC1(C)CCC(CN2CCN(c3ccc(C(=O)NS(=O)(=O)c4ccc(NCC5CCOCC5)c([N+](=O)[O-])c4)c(Oc4cnc5[nH]ccc5c4)c3)CC2)=C(c2ccc(Cl)cc2)C1` + COc1c(OCCCN2CCOCC2)ccc2c3n(c(=NC(=O)c4cnc(N)nc4)nc12)CCN3, the 50% inhibitory concentration (IC50) by setting is: under setting [29], over 10 µM; under setting [30], over 10 µM; under setting [1], over 10 µM; under setting [2], under 0.0316 µM; under setting [3], under 0.0316 µM; under setting [4], under 0.0316 µM. In addition, the viability, T/C under setting [31] is 117%; the viability, T/C under setting [32] is 80.5%; the viability, T/C under setting [33] is 122%; the viability, T/C under setting [34] was 74%; the viability, T/C under setting [35] was 82.4%; the viability, T/C under setting [36] was 108%. For the same molecule, the viability, T/C is 100% under setting [37]; 69.8% under setting [38]; 91.5% under setting [39]; 78.6% under setting [40]; 80.1% under setting [41]; 88.1% under setting [42]. The viability, T/C was 73% under setting [5]; 81.8% under setting [6]; 67.3% under setting [7]; 69.4% under setting [8]; 58.5% under setting [9]; 75.1% under setting [10]. For the same molecule, the viability, T/C is, setting by setting: under setting [11], 43.7%; under setting [12], 42.3%; under setting [13], 37.1%; under setting [14], 38%; under setting [15], 35.2%; under setting [16], 41.4%. Also, the viability, T/C runs as follows: under setting [17], 15.6%; under setting [18], 22.3%; under setting [19], 17.9%; under setting [20], 18.1%; under setting [21], 14.8%; under setting [22], 16.6%. In addition, the viability, T/C under setting [23] is 6.44%; the viability, T/C under setting [24] was 6.49%; the viability, T/C under setting [25] was 6.92%; the viability, T/C under setting [26] was 7.19%; the viability, T/C under setting [27] was 4.62%; the viability, T/C under setting [28] is 9.27%.
